Values quoted from earlier work, collected in US7659264B2, “CGRP receptor antagonists” (Merck Sharp & Dohme Corp., priority 2004, dated 2010).
Where no end group is shown, it is not given here.

Assays:
[1] = test system: facial blood flow; details: marmoset, electrical stimulation of the trigeminal ganglion
[2] = test system: migraine; details: clinical studies, intravenously administered
[3] = test system: diameter of the middle meningeal artery; details: rats, electrical stimulation of the dura mater, prior administration
[4] = test system: facial blood flow; details: rat, trigeminal ganglion stimulation

Compound	effect on increase in facial blood flow [1]	acute treatment for migraine [2]	effect on increased diameter of the middle meningeal artery [3]	effect on increased facial blood flow [4]
NCCCC[C@H](NC(=O)[C@@H](Cc1cc(Br)c(O)c(Br)c1)NC(=O)N1CCC(N2Cc3ccccc3NC2=O)CC1)C(=O)N1CCN(c2ccncc2)CC1 [BIBN4096BS]	could be blocked	safe and effective acute treatment for migraine		
CGRP(8-37): a peptide CGRP antagonist; fragment of CGRP that lacks seven N-terminal amino acid residues (VTHRLAGLLSRSGGVVKNNFVPTNVGSKAF; ends and bridges not checked; UniProt P06881 90-119, looked up, fragment)			blocked	inhibited
